Reference: patent US11578079B2, “SUMO inhibitor compounds and uses thereof” (CITY OF HOPE, priority 2018, dated 2023)

Tests used:
SUMO = biological target: T1, SUMO (Homo sapiens, UniProt Q9UBT2); test: SUMO activity (Table I, biological activities); type: biochemical; design: key: + (less active); ++ (active); +++ (most active)
T1 sequence (Q9UBT2 1-640): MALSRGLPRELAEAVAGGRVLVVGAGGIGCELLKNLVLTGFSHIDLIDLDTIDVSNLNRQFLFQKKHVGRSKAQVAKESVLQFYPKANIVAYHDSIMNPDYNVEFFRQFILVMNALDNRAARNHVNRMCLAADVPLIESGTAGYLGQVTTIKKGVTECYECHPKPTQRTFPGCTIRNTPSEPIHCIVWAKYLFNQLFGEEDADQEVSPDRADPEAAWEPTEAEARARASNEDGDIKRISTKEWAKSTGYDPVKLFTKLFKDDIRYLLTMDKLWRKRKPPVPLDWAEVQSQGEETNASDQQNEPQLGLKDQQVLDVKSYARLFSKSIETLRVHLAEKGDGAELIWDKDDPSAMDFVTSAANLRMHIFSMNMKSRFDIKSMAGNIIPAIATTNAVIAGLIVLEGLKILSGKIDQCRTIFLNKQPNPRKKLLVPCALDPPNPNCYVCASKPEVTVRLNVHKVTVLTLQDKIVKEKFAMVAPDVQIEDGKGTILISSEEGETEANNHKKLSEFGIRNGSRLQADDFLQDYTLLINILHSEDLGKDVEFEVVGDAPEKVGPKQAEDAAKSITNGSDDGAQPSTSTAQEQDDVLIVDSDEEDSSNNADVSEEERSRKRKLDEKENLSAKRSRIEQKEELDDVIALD
T1 sequence (Q9UBE0 1-346 partner): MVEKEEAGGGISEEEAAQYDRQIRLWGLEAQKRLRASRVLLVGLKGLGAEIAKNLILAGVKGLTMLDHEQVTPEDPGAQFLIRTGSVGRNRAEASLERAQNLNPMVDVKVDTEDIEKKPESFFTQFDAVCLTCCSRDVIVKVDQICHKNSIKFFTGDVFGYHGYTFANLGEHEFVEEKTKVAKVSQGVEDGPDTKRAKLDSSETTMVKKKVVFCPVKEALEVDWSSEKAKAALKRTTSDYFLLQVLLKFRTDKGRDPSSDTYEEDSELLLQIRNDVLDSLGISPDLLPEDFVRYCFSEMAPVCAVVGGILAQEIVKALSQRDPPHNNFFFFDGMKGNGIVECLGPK

c-Myc = c-Myc activity (Table I, biological activities); design: key: + (less active); ++ (active); +++ (most active)

| SUMO (SUMO) | Structure (SMILES) | c-Myc (c-Myc) |
| --- | --- | --- |
| +++ | CCOc1cccc(NC(Cc2ccccc2)C23C=CC(O2)C(C(=O)NCCN2CCOCC2)=C3C(=O)OC)c1 (centres unmarked) [Compound 252] | ++ |
| +++ | COC(=O)C1=C(C(=O)NC2CCN(C)C2)C2C=CC1(C(Cc1ccccc1)Nc1ccccc1)O2 (centres unmarked) [Compound 239] | + |
| +++ | COC(=O)C1=C(C(N)=O)C2C=CC1(C(Cc1ccccc1)Nc1ccccc1)O2 (centres unmarked) [Compound 274] | ++ |
| ++ | CCN(CC)CCNC(=O)C1=C(C(=O)OC)C2(C(Cc3ccc(Cl)cc3)Nc3cc(F)cc(F)c3)C=CC1O2 (centres unmarked) [Compound 427] | ++ |
| +++ | CCN(CC)CCNC(=O)C1=C(C(=O)OC)C2(C(Cc3ccccc3)Nc3cc(F)cc(Cl)c3)C=CC1O2 (centres unmarked) [Compound 376] | ++ |
| ++ | CCN(CC)CCNC(=O)C1=C(C(=O)OC)C2(C(Cc3ccc(C(F)(F)F)cc3)Nc3ccccc3)C=CC1O2 (centres unmarked) [Compound 424] | ++ |
| ++ | COC(=O)C1=C(C(=O)NCCNS(=O)(=O)c2ccccc2)C2C=CC1(C(Cc1ccccc1)Nc1ccccc1)O2 (centres unmarked) [Compound 394] | + |
| +++ | COC(=O)C1=C(C(=O)NCCN(C)C)C2C=CC1(C(Cc1ccccc1)Nc1ccc(F)cc1)O2 (centres unmarked) [Compound 264] | ++ |
| + | COC(=O)C1=C(C(=O)NC2CCCCC2)C2C=CC1(C(Cc1ccccc1)Nc1ccccc1)O2 (centres unmarked) [Compound 160] | + |
| ++ | CCN(CC)CCNC(=O)C1=C(C(=O)OC)C2(C(Cc3ccccc3)Oc3ccccc3)C=CC1O2 (centres unmarked) [Compound 439] | ++ |
| + | COC(=O)C1=C(C(=O)NC(C)(C)C)C2C=CC1(C(Cc1ccccc1)Nc1ccccc1)O2 (centres unmarked) [Compound 161] | + |
| ++ | COC(=O)C1=C(C(=O)Nc2ccc(CN3CCCC3)cc2)C2C=CC1(C(Cc1ccccc1)Nc1ccccc1)O2 (centres unmarked) [Compound 508] | + |
| +++ | COC(=O)C1=C(C(=O)NCCN2CCCC2)C2C=CC1(C(Cc1ccccc1)Nc1cc(F)cc(Cl)c1)O2 (centres unmarked) [Compound 444] | ++ |
| +++ | CCN(CC)CCNC(=O)C1=C(C(=O)OC)C2(C(Cc3cccc(F)c3)Nc3cc(F)cc(F)c3)C=CC1O2 (centres unmarked) [Compound 436] | ++ |
| ++ | COC(=O)C1=C(C(=O)Nc2ccc(OCCN(C)C)c(F)c2)C2C=CC1(C(Cc1ccccc1)Nc1ccccc1)O2 (centres unmarked) [Compound 500] | + |
| ++ | COC(=O)C1=C(C(=O)Nc2cccc(F)c2)C2C=CC1(C(Cc1ccccc1)Nc1ccccc1)O2 (centres unmarked) [Compound 276] | + |
| ++ | C=CCC(Nc1ccccc1)C12C=CC(O1)C(C(=O)NCCN(C)C)=C2C(=O)OC (centres unmarked) [Compound 415] | + |
| +++ | COC(=O)C1=C(C(=O)NC2CCNCC2)C2C=CC1(C(Cc1ccccc1)Nc1ccccc1)O2 (centres unmarked) [Compound 225] | ++ |
| +++ | COC(=O)C1=C(C(=O)NCCN2CCOCC2)C2C=CC1(C(Cc1ccccc1)Nc1cc(F)cc(Cl)c1)O2 (centres unmarked) [Compound 226] | ++ |
| +++ | CCOc1cccc(NC(Cc2ccccc2)C23C=CC(O2)C(C(=O)NC2CCN(C)C2)=C3C(=O)OC)c1 (centres unmarked) [Compound 248] | ++ |
| ++ | COC(=O)C1=C(C(=O)Nc2ccccc2)C2C=CC1(C(Cc1ccccc1)Nc1cccc(CO)c1)O2 (centres unmarked) [Compound 528] | ++ |
| ++ | COC(=O)C1=C(C(=O)NCCN(C)C)C2C=CC1(C(Cc1ccccc1)Oc1ccccc1)O2 (centres unmarked) [Compound 438] | ++ |
| + | COC(=O)C1=C(C(=O)Nc2cccc(OC)c2)C2C=CC1(C(Cc1ccccc1)Nc1ccccc1)O2 (centres unmarked) [Compound 180] | + |

More lines, now with the values behind:

| Structure (SMILES) | SUMO (SUMO) | c-Myc (c-Myc) |
| --- | --- | --- |
| CCOC(=O)C1=C(C(=O)Nc2ccc(C)c(F)c2)C2C=CC1(C(Nc1ccccc1)c1ccc(CN3CCOCC3)cc1)O2 (centres unmarked) [Compound 558] | + | + |
| CCOC(=O)C1=C(C(=O)Nc2ccc(C)c(F)c2)C2C=CC1(C(Nc1cccc(OC)c1)c1ccc(CN3CCOCC3)cc1)O2 (centres unmarked) [Compound 615] | + | + |
| COC(=O)C1=C(C(=O)Nc2ccc(OCCN3CCN(C)CC3)cc2)C2C=CC1(C(Cc1ccccc1)Nc1ccccc1)O2 (centres unmarked) [Compound 501] | +++ | + |
| CCOC(=O)C1=C(C(=O)OCC)C2(C(Cc3ccccc3)Nc3ccccc3)C=CC1(C)O2 (centres unmarked) [Compound 260] | ++ | + |
| CCCCC(Nc1ccccc1)C12C=CC(O1)C(C(=O)NC1CCN(C)CC1)=C2C(=O)OC (centres unmarked) [Compound 267] | ++ | ++ |
| COC(=O)C1=C(C(=O)NC2CCN(C(=O)c3ccccn3)CC2)C2C=CC1(C(Cc1ccccc1)Nc1ccccc1)O2 (centres unmarked) [Compound 391] | ++ | + |
| COC(=O)C1=C(C(=O)OC)C2(C(Cc3ccccc3)Nc3cc(F)cc(Cl)c3)C=CC1O2 (centres unmarked) [Compound 209] | ++ | + |
| COC(=O)C1=C(C(=O)NNc2ccc(F)c(F)c2)C2C=CC1(C(Cc1ccccc1)Nc1cc(F)cc(F)c1)O2 (centres unmarked) [Compound 314] | ++ | + |
| COC(=O)C1=C(C(=O)Nc2ccc(OC)nc2)C2C=CC1(C(Cc1ccccc1)Nc1cc(F)cc(Cl)c1)O2 (centres unmarked) [Compound 218] | +++ | + |
| COC(=O)C1=C(C(=O)NC2CCN(C(=O)Cc3ccccc3)CC2)C2C=CC1(C(Cc1ccccc1)Nc1ccccc1)O2 (centres unmarked) [Compound 387] | ++ | + |
| COC(=O)C1=C(C(=O)NCCN2CCCC2)C2C=CC1(C(Cc1ccc(Cl)cc1)Nc1cc(F)cc(F)c1)O2 (centres unmarked) [Compound 441] | +++ | ++ |
| COC(=O)C1=C(C(=O)Nc2ccc(OC)cc2)C2OC1(C(Cc1ccccc1)Oc1ccccc1)C1OC21 (centres unmarked) [Compound 522] | + | + |
| COC(=O)C1=C(C(=O)OC)C2(C(Cc3ccccc3)N(C(=O)C(F)(F)F)c3ccccc3)C=CC1O2 (centres unmarked) [Compound 554] | ++ | ++ |
| COC(=O)C1=C(C(=O)NC2CCN(C(=O)c3ccc(C#N)cc3)CC2)C2C=CC1(C(Cc1ccccc1)Nc1ccccc1)O2 (centres unmarked) [Compound 379] | ++ | + |
| COC(=O)C1=C(C(=O)NCc2ccccn2)C2OC1(C(Cc1ccccc1)Oc1ccccc1)C1OC21 (centres unmarked) [Compound 547] | ++ | ++ |
| COC(=O)C1=C(C(=O)NC2CCN(Cc3ccccc3)CC2)C2CCC1(C(Cc1ccccc1)Nc1ccccc1)O2 (centres unmarked) [Compound 369] | + | + |
| CCOC(=O)C1=C(C(=O)Nc2cccnc2)C2C=CC1(C(Nc1ccccc1)c1ccc(CN3CCOCC3)cc1)O2 (centres unmarked) [Compound 550] | +++ | + |
| COC(=O)C1=C(C(=O)Nc2ccc(OCCN3CCCC3)cc2)C2C=CC1(C(Cc1ccccc1)Nc1ccccc1)O2 (centres unmarked) [Compound 505] | ++ | + |
| COC(=O)C1=C(C(=O)NC2CCN(C(=O)NCC3CCCO3)CC2)C2C=CC1(C(Cc1ccccc1)Nc1ccccc1)O2 (centres unmarked) [Compound 382] | ++ | + |
| CNC(=O)C1=C(C(=O)Nc2ccccc2)C2C=CC1(C(Cc1ccccc1)Nc1ccccc1)O2 (centres unmarked) [Compound 305] | + | + |
| O=C(C1=CC2(C3OCCO3)C=CC1O2)c1ccc(F)cc1 (centres unmarked) [Compound 523] | ++ | + |
| COC(=O)C1=C(C(=O)OC)C2(C(Cc3ccccc3)Nc3ccccc3)C=CC1(C)O2 (centres unmarked) [Compound 586] | ++ | + |
| COC(=O)C1=C(C(=O)Nc2ccc(OC)cc2)C2CCC1(C(Cc1ccccc1)Oc1ccccc1)O2 (centres unmarked) [Compound 350] | + | + |
| COC(=O)C1=C(C(=O)NC2CCN(C(=O)OC(C)(C)C)CC2)C2C=CC1(C(Cc1ccccc1)Nc1cc(F)cc(F)c1)O2 (centres unmarked) [Compound 242] | ++ | + |
| COC(=O)C1=C(C(=O)Nc2ccc(CN3CCN(C)CC3)cc2)C2C=CC1(C(Cc1ccccc1)Nc1ccccc1)O2 (centres unmarked) [Compound 504] | ++ | + |
| CCOC(=O)C1=C(C(=O)OCC)C2(C(Cc3ccccc3)Nc3ccc(F)cc3F)C=CC1O2 (centres unmarked) [Compound 312] | ++ | + |
